What follows are molecules tested against T1, human S1P1 receptors (Homo sapiens, UniProt P21453) (assay: S1P1R antagonist assay (fluorescent membrane potential dye, cAMP readout)). Details: HEK293 cells expressing human S1P1 receptors and CNG channel; 500 nM NECA; S1P1R agonist 10 nM; 90 minutes; read-out: EC50 or IC50 value.
T1 construct: host or cells: HEK293
Format: cell-based
Text: The S1P1R antagonist assay is a fluorescent membrane potential dye measurement assay, indicative of intracellular cAMP changes due to G protein-coupled receptor activation. HEK293 cells engineered to express human S1P1 receptors and a cyclic nucleotide-gated (CNG) channel are obtained from BD Biosciences, 80300-250. The CNG channels are activated by elevated levels of cAMP, resulting in ion flux and cell membrane depolarization. Membrane depolarization is detected with a membrane potential dye. Stimulation of the cells with 5′-(N-ethylcarboxamido)adenosine (NECA), an A2b receptor agonist (Sigma, E2387), elicits an A2bR-dependent increase in cAMP.
Subsequent exposure of the cells to a S1P1R agonist suppresses the NECA induced increase in cAMP through S1P1R-specific signaling by inhibiting adenylyl cyclase and the formation of cAMP from ATP. The degree to which a test compound overcomes the S1P1R agonist suppression of the NECA induced increase in cAMP is a measure of S1P1R antagonist activity. Antagonist activity is quantified as the IC50 (i.e., the concentration needed to elicited one-half of the maximum response of the test compound) and/or as the EC50 (i.e., the concentration needed to elicited one-half of the NECA induced stimulation).
Day 1: Freshly thawed cells were plated into 384-well plates (Corning, 3683) at a density of 14,000 cells/well in 20 μL, complete media and incubated for 16 hours at 37° C., 5% CO2 and 99% relative humidity. Complete media included Dulbecco's modified Eagle's medium (Invitrogen, 11965-092), 10% Fetal bovine serum (Hyclone, SH30071.03), 250 μg/mL geneticin (Invitrogen, 10131-027), and 1 μg/mL Puromycin (Fluka, 82595).
Day 2: Membrane potential dye (20 μL, BD Biosciences, 341833) was added to each well and the plates were incubated for 2.5 hours at ambient temperature. Test compounds (20 μL) were added to the wells at various concentrations (≦10 μM, 1 to 3 dilutions) in a NECA base solution and incubated for 90 minutes in the presence of the S1P1R agonist {4-((4-phenyl-5-trifluoromethyl-2-thienyl)methoxy)benzyl}-3-azetidinecarboxylic acid (10 nM). The NECA-base solution contained Dulbecco's phosphate-buffered saline (Invitrogen, 14190-136), 2.5% DMSO (Fluka, 41648), 25 μM Ro 20-1724 (Sigma, B8279), and 500 nM NECA).
Assay plates were read with a PerkinElmer EnVision reader (Excitation 350 nm, Emission 590 nm) at time T=0 minutes, before compound addition and at time T=90 minutes. The signal was calculated as the ratio T90/T0. Data was analyzed in ActivityBase XE and graphs showing log of compound concentration (X-axis) vs. % activity (Y-axis) were generated for IC50 determinations. Percent activity was calculated with the following formula: (Signal−Agonist Control Signal)/(NECA Control Signal−Agonist Control Signal)×100.

T1 sequence (P21453 whole entry): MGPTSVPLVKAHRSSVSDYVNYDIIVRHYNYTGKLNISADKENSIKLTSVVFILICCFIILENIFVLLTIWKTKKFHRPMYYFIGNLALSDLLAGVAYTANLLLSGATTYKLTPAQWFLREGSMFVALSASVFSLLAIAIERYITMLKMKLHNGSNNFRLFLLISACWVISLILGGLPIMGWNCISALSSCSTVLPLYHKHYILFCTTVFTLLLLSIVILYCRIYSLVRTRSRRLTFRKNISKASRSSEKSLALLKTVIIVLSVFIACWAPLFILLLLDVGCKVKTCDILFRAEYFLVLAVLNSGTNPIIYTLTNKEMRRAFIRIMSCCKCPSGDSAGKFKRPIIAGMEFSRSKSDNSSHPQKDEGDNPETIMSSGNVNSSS

`O=C(Nc1ccc(Oc2ccc(F)cc2)cc1)[C@@H]1C[C@@H](Cc2ccccc2)CN1C(=O)Cc1ccccc1` [Compound 31, (2S,4R)-4-benzyl-N-(4-(4-fluorophenoxy)phenyl)-1-(2-phenylacetyl)pyrrolidine-2-carboxamide] and `O=C(Nc1ccc(Oc2ccc(F)cc2)cc1)[C@@H]1C[C@@H](Cc2ccccc2)CN1C(=O)[C@H](O)c1ccccc1` [Compound 40, (2S,4R)-4-benzyl-N-(4-(4-fluorophenoxy)phenyl)-1-((R)-2-hydroxy-2-phenylacetyl)pyrrolidine-2-carboxamide] cannot be ordered by IC50: at most 300 nM for the first, at most 300 nM for the second.

`Cc1cc(CC(=O)N2C[C@H](Cc3ccccc3)C[C@H]2C(=O)Nc2ccc(Oc3ccc(F)cc3)cc2)on1` [Compound 32, (2S,4R)-4-benzyl-N-(4-(4-fluorophenoxy)phenyl)-1-(2-(3-methylisoxazol-5-yl)acetyl)pyrrolidine-2-carboxamide] and `O=C(Nc1ccc(Oc2ccc(F)cc2)cc1)[C@@H]1C[C@@H](Cc2ccccc2)CN1C(=O)CC(F)(F)F` [Compound 34, (2S,4R)-4-benzyl-N-(4-(4-fluorophenoxy)phenyl)-1-(3,3,3-trifluoropropanoyl)pyrrolidine-2-carboxamide] cannot be ordered by IC50: at most 300 nM for the first, at most 300 nM for the second.

`O=C(Nc1ccc(Oc2ccc(F)cc2)cc1)[C@@H]1C[C@@H](Cc2ccccc2)CN1C(=O)CCCc1ccc2c(c1)OCCO2` [Compound 33, (2S,4R)-4-benzyl-1-(4-(2,3-dihydrobenzo[b][1,4]dioxin-6-yl)butanoyl)-N-(4-(4-fluorophenoxy)phenyl)pyrrolidine-2-carboxamide] and `CN(C)c1ccc(CC(=O)N2C[C@H](Cc3ccccc3)C[C@H]2C(=O)Nc2ccc(Oc3ccc(F)cc3)cc2)cc1` [Compound 35, (2S,4R)-4-benzyl-1-(2-(4-(dimethylamino)phenyl)acetyl)-N-(4-(4-fluorophenoxy)phenyl)pyrrolidine-2-carboxamide] cannot be ordered by IC50: at most 300 nM for the first, at most 300 nM for the second.

`O=C(Nc1ccc(Oc2ccc(F)cc2)cc1)[C@@H]1C[C@@H](Cc2ccccc2)CN1C(=O)C1CCOC1` (stereo partly drawn) [Compound 36, (2S,4R)-4-benzyl-N-(4-(4-fluorophenoxy)phenyl)-1-(tetrahydrofuran-3-carbonyl)pyrrolidine-2-carboxamide] and `O=C1CC[C@@H](C(=O)N2C[C@H](Cc3ccccc3)C[C@H]2C(=O)Nc2ccc(Oc3ccc(F)cc3)cc2)O1` [Compound 39, (2S,4R)-4-benzyl-N-(4-(4-fluorophenoxy)phenyl)-1-((S)-5-oxotetrahydrofuran-2-carbonyl)pyrrolidine-2-carboxamide] cannot be ordered by IC50: at most 300 nM for the first, at most 300 nM for the second.

`Cc1[nH]c2ccccc2c1CC(=O)N1C[C@H](Cc2ccccc2)C[C@H]1C(=O)Nc1ccc(Oc2ccc(F)cc2)cc1` [Compound 37, (2S,4R)-4-benzyl-N-(4-(4-fluorophenoxy)phenyl)-1-(2-(2-methyl-1H-indol-3-yl)acetyl)pyrrolidine-2-carboxamide] and `CCCCOCC(=O)N1C[C@H](Cc2ccccc2)C[C@H]1C(=O)Nc1ccc(Oc2ccc(F)cc2)cc1` [Compound 38, (2S,4R)-4-benzyl-1-(2-butoxyacetyl)-N-(4-(4-fluorophenoxy)phenyl)pyrrolidine-2-carboxamide] cannot be ordered by IC50: at most 300 nM for the first, at most 300 nM for the second.

`O=C(CN1CCN(c2ncccn2)CC1)N[C@@H](COCc1ccccc1)C(=O)Nc1ccc(Oc2ccc(F)cc2)cc1` [Compound 41, (S)-3-(benzyloxy)-N-(4-(4-fluorophenoxy)phenyl)-2-(2-(4-(pyrimidin-2-yl)piperazin-1-yl)acetamido)propanamide] and `COc1cccc(N2CCN(CC(=O)N[C@@H](COCc3ccccc3)C(=O)Nc3ccc(Oc4ccc(F)cc4)cc3)CC2)c1` [Compound 42, (S)-3-(benzyloxy)-N-(4-(4-fluorophenoxy)phenyl)-2-(2-(4-(3-methoxyphenyl)piperazin-1-yl)acetamido)propanamide] cannot be ordered by IC50: over 1000 nM for the first, over 1000 nM for the second.

`O=C(CN1CCC(N2CCCC2)CC1)N[C@@H](COCc1ccccc1)C(=O)Nc1ccc(Oc2ccc(F)cc2)cc1` [Compound 43, (S)-3-(benzyloxy)-N-(4-(4-fluorophenoxy)phenyl)-2-(2-(4-(pyrrolidin-1-yl)piperidin-1-yl)acetamido)propanamide] and `CC1CCCN(CC(=O)N[C@@H](COCc2ccccc2)C(=O)Nc2ccc(Oc3ccc(F)cc3)cc2)C1` (stereo partly drawn) [Compound 46, (2S)-3-(benzyloxy)-N-(4-(4-fluorophenoxy)phenyl)-2-(2-(3-methylpiperidin-1-yl)acetamido)propanamide] cannot be ordered by IC50: over 1000 nM for the first, over 1000 nM for the second.

`O=C(Cc1coc(-c2ccccc2)n1)N[C@@H](COCc1ccc(F)cc1)C(=O)Nc1ccc(Oc2ccc(F)cc2)cc1` [Compound 44, (S)-3-(4-fluorobenzyloxy)-N-(4-(4-fluorophenoxy)phenyl)-2-(2-(2-phenyloxazol-4-yl)acetamido)propanamide] and `Cc1cc(Oc2ccc(F)cc2)ccc1NC(=O)[C@H](COCc1ccccc1)NC(=O)Cc1cnc[nH]1` [Compound 47, (S)-2-(2-(1H-imidazol-5-yl)acetamido)-3-(benzyloxy)-N-(4-(4-fluorophenoxy)-2-methylphenyl)propanamide] cannot be ordered by IC50: over 1000 nM for the first, over 1000 nM for the second.

Compared with `O=C(CN1CCCC2CCCCC21)N[C@@H](COCc1ccccc1)C(=O)Nc1ccc(Oc2ccc(F)cc2)cc1` (stereo partly drawn) [Compound 45, (2S)-3-(benzyloxy)-N-(4-(4-fluorophenoxy)phenyl)-2-(2-(octahydroquinolin-1(2H)-yl)acetamido)propanamide], `Cc1ccccc1C[C@@H]1C[C@@H](C(=O)Nc2ccc(Oc3ccc(F)cc3)cc2)N(C(=O)Cn2nccn2)C1` [Compound 48, (2S,4R)-1-(2-(2H-1,2,3-triazol-2-yl)acetyl)-N-(4-(4-fluorophenoxy)phenyl)-4-(2-methylbenzyl)pyrrolidine-2-carboxamide] is lower in IC50: over 1000 nM for the first, at most 300 nM for the second.

`O=C(Nc1ccc(Oc2ccc(F)cc2)cc1)[C@@H]1C[C@@H](Cc2cccc(F)c2)CN1C(=O)Cn1nccn1` [Compound 49, (2S,4R)-1-(2-(2H-1,2,3-triazol-2-yl)acetyl)-4-(3-fluorobenzyl)-N-(4-(4-fluorophenoxy)phenyl)pyrrolidine-2-carboxamide] and `O=C(Nc1ccc(Oc2ccc(F)cc2)cc1)[C@@H]1C[C@@H](Cc2ccc(F)cc2)CN1C(=O)Cn1nccn1` [Compound 50, (2S,4R)-1-(2-(2H-1,2,3-triazol-2-yl)acetyl)-4-(4-fluorobenzyl)-N-(4-(4-fluorophenoxy)phenyl)pyrrolidine-2-carboxamide] cannot be ordered by IC50: at most 300 nM for the first, at most 300 nM for the second.

`O=C(Nc1ccc(Oc2ccc(F)cc2)cc1)[C@@H]1C[C@@H](Cc2cccc(F)c2)CN1C(=O)Cn1cncn1` [Compound 51, (2S,4R)-1-(2-(1H-1,2,4-triazol-1-yl)acetyl)-4-(3-fluorobenzyl)-N-(4-(4-fluorophenoxy)phenyl)pyrrolidine-2-carboxamide] and `O=C(Nc1ccc(Oc2ccc(F)cc2)cc1)[C@@H]1C[C@@H](Cc2ccc(F)cc2F)CN1C(=O)Cn1cncn1` [Compound 53, (2S,4R)-1-(2-(1H-1,2,4-triazol-1-yl)acetyl)-4-(2,4-difluorobenzyl)-N-(4-(4-fluorophenoxy)phenyl)pyrrolidine-2-carboxamide] cannot be ordered by IC50: at most 300 nM for the first, at most 300 nM for the second.

`O=C(Nc1ccc(Oc2ccc(F)cc2)cc1)[C@@H]1C[C@@H](Cc2ccc(F)cc2F)CN1C(=O)Cn1nccn1` [Compound 52, (2S,4R)-1-(2-(2H-1,2,3-triazol-2-yl)acetyl)-4-(2,4-difluorobenzyl)-N-(4-(4-fluorophenoxy)phenyl)pyrrolidine-2-carboxamide] and `Cc1ccccc1C[C@@H]1C[C@@H](C(=O)Nc2ccc(Oc3ccc(F)cc3)cc2)N(C(=O)Cn2cncn2)C1` [Compound 55, (2S,4R)-1-(2-(1H-1,2,4-triazol-1-yl)acetyl)-N-(4-(4-fluorophenoxy)phenyl)-4-(2-methylbenzyl)pyrrolidine-2-carboxamide] cannot be ordered by IC50: at most 300 nM for the first, at most 300 nM for the second.

With `O=C(Nc1ccc(Oc2ccc(F)cc2)cc1)[C@@H]1C[C@@H](Cc2ccccc2C(F)(F)F)CN1C(=O)Cn1cncn1` [Compound 54, (2S,4R)-1-(2-(1H-1,2,4-triazol-1-yl)acetyl)-N-(4-(4-fluorophenoxy)phenyl)-4-(2-(trifluoromethyl)benzyl)pyrrolidine-2-carboxamide] the IC50 was at most 300 nM.
